In patent US20230181614A1, “ADMINISTRATION OF CITICOLINE TO IMPROVE COGNITIVE PERFORMANCE, ATTENTIONAL PERFORMANCE, AND MOTOR FUNCTION” (KYOWA HAKKO BIO CO., LTD., priority 2014, published 2023):
Where “and” joins values, the source holds several entries; their conditions need not be identical. Equal entries are not always repeated.

What was measured:
Assay type in all cases: in vivo, human
[1] = tested on: Healthy subjects, ages 13-18; test: ADHD Rating Scale (ARS); design: scale not given here
Description: (§1) Study participants were screened by telephone prior to study enrollment. Healthy subjects, ages 13-18, with no significant medical conditions and no history of co-morbid psychiatric disorder, current Axis I or II diagnosis, or previous participation in a pharmacotherapeutic trial, were selected. Use of any psychotropic medication or any previous head injury resulting in loss of consciousness for 5 or more minutes were used as exclusion criteria. While no participant met criteria for a neuropsychiatric disorder at enrollment, clinical assessments were still completed throughout the study to evaluate changes in mood state. In addition, self-reports of sleep habits, lifestyle, and exercise routines were also administered at baseline as well as at each study visit to assess changes in health habits during study participation. Following the completion of Visit 1 assessment, participants were given their 28-day supply of citicoline (250 mg or 500 mg) or placebo, which was randomly assigned. They were instructed to take one capsule a day every day for the next 28 days. Visit 2 occurred fourteen days after Visit 1. At Visit 2, the remaining study pills were counted and participant dosage calendars were checked to ensure compliance with the protocol. Additional neuropsychological measures and clinical assessments were administered during this visit. Participants returned for Visit 3 fourteen days later, on the 28th day of their study participation. The pill bottle and the dosage calendar were collected from each participant. Urine and blood were again obtained. Participants also participated in similar clinical and neuropsychological testing and clinical measures that were given during visit 1. The ARS is a questionnaire assessing the frequency of DSM-IV-TR symptoms of ADHD in children including inattention, impulsivity, and hyperactivity. The scale was administered at each of the three visits to assess presence or absence of ADHD symptoms.

[2] = tested on: Healthy subjects, ages 13-18; test: Conner-Wells Self-Report Scale (L) (Conners); conditions: for Conners Score, Mean: V3-V1
Description: Study participants were screened by telephone prior to study enrollment. Healthy subjects, ages 13-18, with no significant medical conditions and no history of co-morbid psychiatric disorder, current Axis I or II diagnosis, or previous participation in a pharmacotherapeutic trial, were selected. Use of any psychotropic medication or any previous head injury resulting in loss of consciousness for 5 or more minutes were used as exclusion criteria. While no participant met criteria for a neuropsychiatric disorder at enrollment, clinical assessments were still completed throughout the study to evaluate changes in mood state. In addition, self-reports of sleep habits, lifestyle, and exercise routines were also administered at baseline as well as at each study visit to assess changes in health habits during study participation. Following the completion of Visit 1 assessment, participants were given their 28-day supply of citicoline (250 mg or 500 mg) or placebo, which was randomly assigned. They were instructed to take one capsule a day every day for the next 28 days. Visit 2 occurred fourteen days after Visit 1. At Visit 2, the remaining study pills were counted and participant dosage calendars were checked to ensure compliance with the protocol. Additional neuropsychological measures and clinical assessments were administered during this visit. Participants returned for Visit 3 fourteen days later, on the 28th day of their study participation. The pill bottle and the dosage calendar were collected from each participant. Urine and blood were again obtained. Participants also participated in similar clinical and neuropsychological testing and clinical measures that were given during visit 1. The Conners is a self-report questionnaire assessing a range or problem behaviors in children, including family problems, emotional problems, conduct problems, cognitive problems/inattention, anger control problems, hyperactivity, ADHD Index, and DSM-IV symptom subscales. The scale was administered at the first and third visits to assess presence or absence of a range of problem behaviors.

[3] = tested on: Healthy subjects, ages 13-18; test: Stroop Color Word Test; design: unit not given here; conditions: for Stroop Color Trial V1, Mean / Stroop Difference V1, Mean / Stroop Interference Trial V1, Mean / Stroop Word Trial V1, Mean: Visit 1; for V3-V1 Stroop Color Trial, Mean / V3-V1 Stroop Difference, Mean / V3-V1 Stroop Interference Trial, Mean / V3-V1 Stroop Word Trial, Mean: Visit difference score; for Stroop Color Trial V3, Mean / Stroop Difference V3, Mean / Stroop Interference Trial V3, Mean / Stroop Word Trial V3, Mean: Visit 3
Description: as §1, with “Stroop measures” for “ARS is a questionnaire assessing”, “ability to inhibit incorrect responses” for “frequency of DSM-IV-TR symptoms of ADHD in children including inattention, impulsivity,”, “to resist interference.” for “hyperactivity.”, “three conditions, Color Naming, Word Reading, and Interference, are designed to establish competing response tendencies. Outcome variables include time to complete each condition, as well as total errors per condition. The Stroop test” for “scale”, “visits.” for “visits to assess presence or absence of ADHD symptoms.”

**Q.** C[N+](C)(C)CCOP(=O)(O)OP(=O)([O-])OC[C@H]1O[C@@H](n2ccc(N)nc2=O)[C@H](O)[C@@H]1O [citicoline, Cytidine 5′-diphosphocholine] was tested. Which “ARS Impulsivity, Mean” value ([1]; 250 mg/day, V1 (baseline)) did it give?
**A.** 1.44

**Q.** What about the “ARS Inattention, Mean” value ([1]; 250 mg/day, V1 (baseline)) of the same compound?
**A.** 1.30

**Q.** And the “ARS Impulsivity, Mean” value ([1]; 250 mg/day, V3 (day 28))?
**A.** 0.85

**Q.** And the “ARS Inattention, Mean” value ([1]; 250 mg/day, V3 (day 28))?
**A.** 1.56

**Q.** And the “ARS Impulsivity, Mean” value ([1]; 250 mg/day, V3-V1)?
**A.** -0.59

**Q.** And the “ARS Inattention, Mean” value ([1]; 250 mg/day, V3-V1)?
**A.** 0.26

**Q.** What about the “ARS Impulsivity, Mean” value ([1]; 500 mg/day, V1 (baseline)) of the same compound?
**A.** 0.88

**Q.** And the “ARS Inattention, Mean” value ([1]; 500 mg/day, V1 (baseline))?
**A.** 0.50

**Q.** And the “ARS Impulsivity, Mean” value ([1]; 500 mg/day, V3 (day 28))?
**A.** 0.38

**Q.** And the “ARS Inattention, Mean” value ([1]; 500 mg/day, V3 (day 28))?
**A.** 0.38

**Q.** What about the “ARS Inattention, Mean” value ([1]; 500 mg/day, V3-V1) of the same compound?
**A.** -0.13

**Q.** And the “Conners, Mean” value ([2]; 250 mg/day, V1 (baseline))?
**A.** 49.26

**Q.** And the “Conners, Mean” value ([2]; 250 mg/day, V3 (day 28))?
**A.** 49.52 and 46.52

**Q.** And the “Conners Score, Mean” value ([2]; 250 mg/day)?
**A.** -2.74

**Q.** And the “Conners, Mean” value ([2]; 500 mg/day, V1 (baseline))?
**A.** 43.83

**Q.** And the “Conners, Mean” value ([2]; 500 mg/day, V3 (day 28))?
**A.** 39.54

**Q.** And the “Conners Score, Mean” value ([2]; 500 mg/day)?
**A.** -4.29

**Q.** What about the “Stroop Color Trial V1, Mean” value ([3]; 250 mg/day group) of the same compound?
**A.** 61.05

**Q.** And the “Stroop Difference V1, Mean” value ([3]; 250 mg/day group)?
**A.** 43.53

**Q.** What about the “Stroop Interference Trial V1, Mean” value ([3]; 250 mg/day group) of the same compound?
**A.** 91.85

**Q.** And the “Stroop Word Trial V1, Mean” value ([3]; 250 mg/day group)?
**A.** 48.32

**Q.** And the “V3-V1 Stroop Color Trial, Mean” value ([3]; 250 mg/day group)?
**A.** -7.71

**Q.** And the “V3-V1 Stroop Difference, Mean” value ([3]; 250 mg/day group)?
**A.** -17.53

**Q.** And the “V3-V1 Stroop Interference Trial, Mean” value ([3]; 250 mg/day group)?
**A.** -19.03

**Q.** And the “V3-V1 Stroop Word Trial, Mean” value ([3]; 250 mg/day group)?
**A.** -1.98

**Q.** What about the “Stroop Color Trial V3, Mean” value ([3]; 250 mg/day group) of the same compound?
**A.** 53.34 and 53.35

**Q.** And the “Stroop Difference V3, Mean” value ([3]; 250 mg/day group)?
**A.** 26.00

**Q.** What about the “Stroop Interference Trial V3, Mean” value ([3]; 250 mg/day group) of the same compound?
**A.** 72.82

**Q.** And the “Stroop Word Trial V3, Mean” value ([3]; 250 mg/day group)?
**A.** 46.34

**Q.** What about the “Stroop Color Trial V1, Mean” value ([3]; 500 mg/day group) of the same compound?
**A.** 60.12

**Q.** And the “Stroop Difference V1, Mean” value ([3]; 500 mg/day group)?
**A.** 44.93

**Q.** And the “Stroop Interference Trial V1, Mean” value ([3]; 500 mg/day group)?
**A.** 91.62

**Q.** What about the “Stroop Word Trial V1, Mean” value ([3]; 500 mg/day group) of the same compound?
**A.** 46.69

**Q.** And the “V3-V1 Stroop Color Trial, Mean” value ([3]; 500 mg/day group)?
**A.** -5.77

**Q.** What about the “V3-V1 Stroop Difference, Mean” value ([3]; 500 mg/day group) of the same compound?
**A.** -15.55

**Q.** And the “V3-V1 Stroop Interference Trial, Mean” value ([3]; 500 mg/day group)?
**A.** -16.95

**Q.** What about the “V3-V1 Stroop Word Trial, Mean” value ([3]; 500 mg/day group) of the same compound?
**A.** -1.40

**Q.** And the “Stroop Color Trial V3, Mean” value ([3]; 500 mg/day group)?
**A.** 54.35

**Q.** What about the “Stroop Difference V3, Mean” value ([3]; 500 mg/day group) of the same compound?
**A.** 29.38

**Q.** And the “Stroop Interference Trial V3, Mean” value ([3]; 500 mg/day group)?
**A.** 74.68

**Q.** What about the “Stroop Word Trial V3, Mean” value ([3]; 500 mg/day group) of the same compound?
**A.** 45.30
